Laboratory results from patent US4973592A, “1,3-diazocycloalkenes as muscarinic receptor blocking agents” (Istituto de Angeli, priority 1987, dated 1990).
Structures can show the parent of a compound that is named as a salt. Where two headings read alike, the source gives them in different places.

Tests used:
[1] = molecular target: T1, isolated guinea pig ileum (bethanechol induced contractions) (Cavia porcellus, UniProt H0W1Z3); assay: antispasmodic activity on isolated guinea pig ileum with bethanechol as spasmogen; design: species or system guinea pig (Dunkin Hartley); conditions: cumulative bethanechol 0.3-30 μM, antagonist 60 min before, Tyrode solution, 37° C.; KB from dose-ratio; read-out: Antispasmodic activity. Dissociation constants (KB) for bethanechol induced contractions in the guinea pig ileum
T1 construct: a 2 cm piece of terminal ileum was rapidly excised; from tissue; host or cells: guinea pig terminal ileum (Dunkin Hartley)

[2] = molecular target: T2, muscarinic receptors of the cerebral cortex (Rattus norvegicus, UniProt P08482); assay: biochemical; design: species or system male CD-COOBBS rats; conditions: read-out: Antimuscarinic effect. Dissociation constants (KD) for ^3 H-pirenzepine binding
T2 sequence (P08482 1-460): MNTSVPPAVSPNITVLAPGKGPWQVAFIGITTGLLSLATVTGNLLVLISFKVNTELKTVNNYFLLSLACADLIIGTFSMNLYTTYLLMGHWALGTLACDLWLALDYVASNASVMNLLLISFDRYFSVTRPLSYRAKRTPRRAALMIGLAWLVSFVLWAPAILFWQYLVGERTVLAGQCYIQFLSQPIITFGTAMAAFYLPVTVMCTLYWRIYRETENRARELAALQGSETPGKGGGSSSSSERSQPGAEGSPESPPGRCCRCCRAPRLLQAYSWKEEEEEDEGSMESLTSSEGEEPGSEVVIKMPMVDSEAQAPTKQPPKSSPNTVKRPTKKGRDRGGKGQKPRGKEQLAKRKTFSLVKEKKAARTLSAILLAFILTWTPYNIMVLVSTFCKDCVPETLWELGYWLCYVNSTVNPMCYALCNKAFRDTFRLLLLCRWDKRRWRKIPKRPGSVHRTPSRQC

[3] = competition against 0.5 nM ^3 H-pirenzepine, rat cerebral cortex homogenate, 45 min at 30° C., pH 7.4, corrected for radioligand occupancy shift

T1 sequence (H0W1Z3 1-590): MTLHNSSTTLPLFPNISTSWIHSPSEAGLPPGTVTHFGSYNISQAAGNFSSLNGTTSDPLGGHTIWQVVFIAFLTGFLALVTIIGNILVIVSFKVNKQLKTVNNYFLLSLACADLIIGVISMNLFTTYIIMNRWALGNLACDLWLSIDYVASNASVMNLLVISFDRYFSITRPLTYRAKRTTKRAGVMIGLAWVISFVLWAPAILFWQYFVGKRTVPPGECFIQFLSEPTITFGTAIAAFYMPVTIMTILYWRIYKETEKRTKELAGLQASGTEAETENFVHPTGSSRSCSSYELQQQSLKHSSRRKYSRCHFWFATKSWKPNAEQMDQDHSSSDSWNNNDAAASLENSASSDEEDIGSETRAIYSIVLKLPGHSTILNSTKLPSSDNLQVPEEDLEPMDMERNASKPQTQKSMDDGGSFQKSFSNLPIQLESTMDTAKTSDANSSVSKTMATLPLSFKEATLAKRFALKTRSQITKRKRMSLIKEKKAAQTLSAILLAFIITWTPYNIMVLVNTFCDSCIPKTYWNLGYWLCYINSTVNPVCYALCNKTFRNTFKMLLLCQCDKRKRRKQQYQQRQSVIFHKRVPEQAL

Row | Compound | Kb [1] | Kd [2, 3] | Kd [2]
1 | CC1=NCCN1CCC(O)(c1ccccc1)C1CCCCC1 (stereo not drawn) [Compound 2, 1-(3-Phenyl-3-cyclohexyl-3-hydroxy)propyl-2-methyl-2-imidazoline hydrochloride] | 1.7 nM | 3 nM | 
2 | OC(CCN1C=NCCC1)(c1ccccc1)C1CCCCC1 (stereo not drawn) [Compound 1, 1-(3-Phenyl-3-cyclohexyl-3-hydroxy)propyl-1,4,5,6-tetrahydropyrimidine hydrochloride] | 1 nM | 4.2 nM | 
3 | NC1=NCC(OC(=O)C2(C3CCCCC3)CCCCC2)CN1 (stereo not drawn) [Compound 15, 2-Amino-1,4,5,6-tetrahydropyrimidin-5-yl 1-cyclohexylcyclohexane-1-carboxylate formate] | 0.46 nM |  | 2.7 nM

The next lines start with the values.

Row | Kb [1] | Kd [2, 3] | Kd [2] | Compound
4 | 1.5 nM | 5 nM |  | OC(CCCN1C=NCCC1)(c1ccccc1)C1CCCCC1 (stereo not drawn) [Compound 22, 1-(4-Phenyl-4-cyclohexyl-4-hydroxy)butyl-1,4,5,6-tetrahydropyrimidine hydrochloride]
5 | 3.4 nM | 7.4 nM |  | CC1=NCCN1CCCC(O)(c1ccccc1)C1CCCCC1 (stereo not drawn) [Compound 21, 1-(4-Phenyl-4-cyclohexyl-4-hydroxy)butyl-2-methyl-2-imidazoline hydrochloride]
6 | 6.2 nM | 14 nM |  | OC(CCN1C=NCC1)(c1ccccc1)C1CCCCC1 (stereo not drawn) [Compound 23, 1-(3-phenyl-3-cyclohexyl-3-hydroxy)propyl-2-imidazoline hydrochloride]
